Reference: patent US20210363496A1, “METHOD FOR OBTAINING ARTIFICIAL NEUROMUSCULAR JUNCTION FROM PLURIPOTENT STEM CELLS” (KYOTO UNIVERSITY, priority 2017, published 2021)
“Also recorded” adds a separate entry of the source.

Key:
Format in all cases: cell-based, human
[1] = tested on: in vitro hNMJ culture (myotubes); assay: Calcium imaging of in vitro hNMJ; conditions: day 20 of NMJ differentiation, Ca imaging at five ROIs
Experimental: MyoD-201B7 cells were seeded at a density of 2.2×10^4 cells/well and differentiated into NMJs in a Costar 96-well black-wall/clear-bottom plate. On day 20, the growth medium was removed, and 100 μL Fluo-8 recording medium was added to the cells at 37° C. for 1 hour. The cells were washed twice with PBS and then imaged on In Cell Analyzer 2000. The fluorescence intensity was expressed as the F/F0 ratio.
MyoD-201B7 cells were seeded onto a Matrigel-coated, 96-well black-wall/clear-bottom plate at a density of 2.2×10^4 cells/well. Half of the medium in each well was exchanged every day until the cultures started contracting. The growth medium was removed, and cells were loaded with 100 μL Fluo-8 recording medium at 37° C. for 1 hour. The cells were washed twice with PBS and then the differentiation medium was added to the wells. Ca oscillations were monitored with the FDSS microplate reader, data points were collected at 1-minute intervals, and the data points were analyzed using FDSS software for frequency and amplitude quantification.

[2] = tested on: hNMJ culture expressing ChR2-EYFP; assay: Motion analysis of in vitro hNMJ culture by photoactivation (ChR2-EYFP); conditions: day 100 of NMJ differentiation
Experimental: The plasmid deposited at Addgene by Karl Deisseroth was purchased and used as a plasmid containing a photoactivation domain (pLenti-Synapsin-hChR2 (H134R)-EYFP-WPRE, Addgene plasmid number 20945). The lentivirus transduction system (ViraPower hiperform lentivirus expression system, Invitrogen) was used to transduce the target gene into neural cells. NMJ cultures were treated with virus-containing medium at 37° C. for 48 hours with 5% CO2. After virus infection, the medium was removed and the Neurobasal medium was added for target gene expression. The medium was changed every 3 to 4 days. EYFP expression was examined by confocal microscopy with proper optical settings. Photoactivation was performed with at 488-nm laser wavelength. In addition to EYFP signals, bright-field images were captured simultaneously for muscle movement analysis.

[3] = tested on: in vitro hNMJ culture (myotubes); assay: Motion vector analysis of myotube contraction in in vitro hNMJ; conditions: day 20 of NMJ differentiation
Experimental: (§1) MyoD-201B7 strain was subjected to myogenic differentiation according to the procedure described in Tanaka et al., PLOS ONE 2013. Specifically, MyoD-201B7 cells were seeded on a Matrigel-coated plate, and myogenic differentiation was induced by adding 1 μg/mL of doxycycline to myogenic differentiation medium (10% KSR+αMEM). Ten days after the addition of doxycycline, neural differentiation was induced by changing the medium to Neurobasal medium supplemented with neurotrophic factors (BDNF, GDNF, and NT3; 10 ng/ml each, R&D Systems). The medium was then replaced every 3 to 4 days to continue culturing.
Using α7s ILCE-7S (Sony Corporation), phase-contrast images using a red-filtered optical source and fluorescence (Fluo8, green) were continuously captured at 15 fps. Using the SI8000 Cell Motion Imaging System (Sony Corporation), which provides motion vector analysis based on the block matching method, motion quantification with the red-separated images in regions of interest (ROIs) and brightness analysis with the green-separated images were performed.
Both moving image capture and motion analysis were performed at 38 fps using the SI8000 Cell Motion Imaging System (Sony Corporation).

in vitro hNMJ culture = assay: Contribution of agrin to the in vitro NMJ system (NMJ area, TEM); conditions: long-term culture
Experimental: as §1
NMJ cultures were pre-fixed in 2% paraformaldehyde and 2% glutaraldehyde in 0.1 M phosphate buffer (pH 7.4) at 4° C. overnight. Post-fixation was done in 1% osmium tetroxide solution for 1 hour at room temperature. The samples were dehydrated in ethanol (30%, 50%, 70%, 90%, 95%, and 100%) and embedded in Epon resin. Ultrathin sections (80 nm) were cut and stained with uranyl acetate and alkaline lead citrate. The specimens were examined with a transmission electron microscope (H-7650, Hitachi, Ltd.).
Image analysis and quantification were performed by MetaMorph software (Molecular Devices, LLC. USA).

## curare
[1]
  excitation of myotubes (transient Ca2+ elevation): reduced; also recorded: stopped
[2]
  muscle contraction triggered by blue light (488 nm): inhibited

## O=C1CN(/N=C/c2ccc(-c3ccc([N+](=O)[O-])cc3)o2)C(O)=N1 [dantrolene]
[3]
  spontaneous synchronized contraction-like movement of myotubes: inhibited

## [Ca+2] [Ca^2+, calcium]
[1]
  excitation of myotubes (transient Ca2+ elevation): enhanced

## agrin
In vitro hNMJ culture
  area of the NMJ (ratio of NMJ region): increased
  morphology of myotubes and axon terminals by TEM: Myotube was well confined at fold of junction that bounds axon terminal
